Data from US10597388B2, “Pyridazinone herbicides” (FMC CORPORATION, priority 2014, dated 2020).

Key:
Assay in all cases: Test E greenhouse herbicide test, pre- and postemergence
Assay type in all cases: in vivo
[1] = system: momingglory (Ipomoea coccinea); conditions: Preemergence
Method in brief: (§1)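 Compounds in a non-phytotoxic solvent mixture with surfactant were applied preemergence to seeds in silt loam soil and postemergence to 2-18 cm plants (1- to 4-leaf stage) in peat-based medium. After 14 to 21 d in a greenhouse, injury was rated visually against untreated controls on a 0 (no effect) to 100 (complete control) scale.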

[2] = system: goosegrass (Eleusine indica); conditions: Preemergence
Method in brief: as §1

[3] = system: sandbur (southem sandbur, Cenchrus echinatus)
Method in brief: as §1

[4] = system: ragweed (common ragweed, Ambrosia elatior)
Method in brief: as §1

[5] = system: pigweed, palmer (palmer pigweed, Amaranthus palmeri)
Method in brief: as §1

[6] = system: arrowleaf sida (Sida rhombifolia)
Method in brief: as §1

corn (Zea mays) = system: corn (Zea mays)
Method in brief: as §1

[7] = system: foxtail, giant (giant foxtail, Setaria faberii); conditions: Preemergence
Method in brief: as §1

[8] = system: velvetleaf (Abutilon theophrasti); conditions: Preemergence
Method in brief: as §1

[9] = system: dayflower (Virginia (VA) dayflower, Commelina virginica)
Method in brief: as §1

[10] = system: surinam grass (Brachiaria decumbens); conditions: Preemergence
Method in brief: as §1

[11] = system: barnyardgrass (Echinochloa crus-galli)
Method in brief: as §1

[12] = system: lambsquarters (Chenopodium album); conditions: Preemergence
Method in brief: as §1

[13] = system: horseweed (Conyza canadensis)
Method in brief: as §1

[14] = system: panicum, fall (fall panicum, Panicum dichotomiflorum)
Method in brief: as §1

[15] = system: nightshade (eastern black nightshade, Solanum ptycanthum); conditions: Preemergence
Method in brief: as §1

[16] = system: crabgrass, large (large crabgrass, Digitaria sanguinalis); conditions: Preemergence
Method in brief: as §1

[17] = 62 g ai/ha, scale 0 to 100 (0 no effect, 100 complete control)
[18] = 125 g ai/ha, scale 0 to 100 (0 no effect, 100 complete control)
[19] = 31 g ai/ha, scale 0 to 100, 0 no effect, 100 complete control
[20] = 250 g ai/ha, visual, scale 0 no effect to 100 complete control
[21] = 125 g ai/ha, visual, scale 0 no effect to 100 complete control
[22] = 62 g ai/ha, Preemergence, scale 0 to 100 (0 no effect, 100 complete control)
[23] = 125 g ai/ha, Postemergence, scale 0 to 100 (0 no effect, 100 complete control)
[24] = 125 g ai/ha, Preemergence, scale 0 to 100 (0 no effect, 100 complete control)
[25] = 250 g ai/ha, Postemergence, scale 0 to 100 (0 no effect, 100 complete control)
[26] = Preemergence, 31 g ai/ha, scale 0 to 100, 0 no effect, 100 complete control
[27] = Preemergence, 250 g ai/ha, visual, scale 0 no effect to 100 complete control
[28] = Preemergence, 125 g ai/ha, visual, scale 0 no effect to 100 complete control

## CCC(=O)Oc1c(C)nn(C)c(=O)c1-c1c(C)sc2c(C)cc(C)cc12 [Compound 28]
[1]; [17]
  Plant response rating, Morningglory: 90
[1]; [18]
  Plant response rating, Morningglory: 95
[1]; [19]
  Plant response rating, Morningglory: 50
[1]; [20]
  Plant response rating, Morningglory: 100
[2]; [17]
  Plant response rating, Goosegrass: 60
[2]; [19]
  Plant response rating, Goosegrass: 35
[2]; [21]
  Plant response rating, Goosegrass: 75
[2]; [20]
  Plant response rating, Goosegrass: 90
[3]; [22]
  Plant response rating, Sandbur: 65
[3]; [23]
  Plant response rating, Sandbur: 60
[3]; [24]
  Plant response rating, Sandbur: 80
[3]; [25]
  Plant response rating, Sandbur: 80
[3]; [26]
  Plant response rating, Sandbur: 15
[3]; [27]
  Plant response rating, Sandbur: 85
[4]; [22]
  Plant response rating, Ragweed: 90
[4]; [23]
  Plant response rating, Ragweed: 70
[4]; [24]
  Plant response rating, Ragweed: 95
[4]; [25]
  Plant response rating, Ragweed: 75
[4]; [26]
  Plant response rating, Ragweed: 95
[4]; [27]
  Plant response rating, Ragweed: 98
[5]; [22]
  Plant response rating, Pigweed, Palmer: 65
[5]; [23]
  Plant response rating, Pigweed, Palmer: 50
[5]; [24]
  Plant response rating, Pigweed, Palmer: 95
[5]; [25]
  Plant response rating, Pigweed, Palmer: 50
[5]; [26]
  Plant response rating, Pigweed, Palmer: 0
[5]; [27]
  Plant response rating, Pigweed, Palmer: 98
[6]; [22]
  Plant response rating, Arrowleaf Sida: 0
[6]; [23]
  Plant response rating, Arrowleaf Sida: 60
[6]; [25]
  Plant response rating, Arrowleaf Sida: 60
[6]; [28]
  Plant response rating, Arrowleaf Sida: 50
[6]; [27]
  Plant response rating, Arrowleaf Sida: 70
Corn (Zea mays); [22]
  Plant response rating, Corn: 0
Corn (Zea mays); [23]
  Plant response rating, Corn: 5
Corn (Zea mays); [25]
  Plant response rating, Corn: 5
Corn (Zea mays); [26]
  Plant response rating, Corn: 0
Corn (Zea mays); [28]
  Plant response rating, Corn: 0
Corn (Zea mays); [27]
  Plant response rating, Corn: 0
[7]; [17]
  Plant response rating, Foxtail, Giant: 100
[7]; [19]
  Plant response rating, Foxtail, Giant: 85
[7]; [21]
  Plant response rating, Foxtail, Giant: 100
[7]; [20]
  Plant response rating, Foxtail, Giant: 100
[8]; [17]
  Plant response rating, Velvetleaf: 35
[8]; [18]
  Plant response rating, Velvetleaf: 70
[8]; [19]
  Plant response rating, Velvetleaf: 0
[8]; [20]
  Plant response rating, Velvetleaf: 100
[9]; [22]
  Plant response rating, Dayflower, VA: 10
[9]; [23]
  Plant response rating, Dayflower, VA: 70
[9]; [25]
  Plant response rating, Dayflower, VA: 80
[9]; [26]
  Plant response rating, Dayflower, VA: 5
[9]; [28]
  Plant response rating, Dayflower, VA: 65
[9]; [27]
  Plant response rating, Dayflower, VA: 70
[10]; [17]
  Plant response rating, Surinam Grass: 98
[10]; [18]
  Plant response rating, Surinam Grass: 100
[10]; [19]
  Plant response rating, Surinam Grass: 85
[10]; [20]
  Plant response rating, Surinam Grass: 98
[11]; [22]
  Plant response rating, Barnyardgrass: 20
[11]; [23]
  Plant response rating, Barnyardgrass: 50
[11]; [25]
  Plant response rating, Barnyardgrass: 60
[11]; [26]
  Plant response rating, Barnyardgrass: 20
[11]; [28]
  Plant response rating, Barnyardgrass: 65
[11]; [27]
  Plant response rating, Barnyardgrass: 90
[12]; [17]
  Plant response rating, Lambsquarters: 100
[12]; [19]
  Plant response rating, Lambsquarters: 100
[12]; [21]
  Plant response rating, Lambsquarters: 100
[12]; [20]
  Plant response rating, Lambsquarters: 98
[13]; [22]
  Plant response rating, Horseweed: 100
[13]; [23]
  Plant response rating, Horseweed: 80
[13]; [25]
  Plant response rating, Horseweed: 80
[13]; [26]
  Plant response rating, Horseweed: 100
[13]; [28]
  Plant response rating, Horseweed: 100
[13]; [27]
  Plant response rating, Horseweed: 98
[14]; [22]
  Plant response rating, Panicum, Fall: 95
[14]; [23]
  Plant response rating, Panicum, Fall: 70
[14]; [24]
  Plant response rating, Panicum, Fall: 98
[14]; [25]
  Plant response rating, Panicum, Fall: 90
[14]; [26]
  Plant response rating, Panicum, Fall: 90
[14]; [27]
  Plant response rating, Panicum, Fall: 100
[15]; [17]
  Plant response rating, Nightshade: 98
[15]; [18]
  Plant response rating, Nightshade: 98
[15]; [19]
  Plant response rating, Nightshade: 80
[15]; [20]
  Plant response rating, Nightshade: 100
[16]; [17]
  Plant response rating, Crabgrass, Large: 35
[16]; [21]
  Plant response rating, Crabgrass, Large: 90
[16]; [20]
  Plant response rating, Crabgrass, Large: 90
